Source: PMC6804212, “Chain Substituted Cannabilactones with Selectivity for the CB2 Cannabinoid Receptor” (Molecules, 2019)
Read-outs that look alike come from different tables or passages of the source.

Tests used:
hCB2 receptor [1] = biological target: T1, hCB2 receptor (Homo sapiens, UniProt P34972); test: cAMP assay: decrease in forskolin-stimulated cAMP in HEK293 cells stably expressing hCB2; format: cell-based; set-up: expressed in transfected cells; details: for classification at hCB2: forskolin-stimulated cAMP assay; for E(max): maximum inhibition of forskolin stimulated cAMP levels, as percentage of CP-55,940 response at 500 nM
T1 sequence (P34972 whole entry): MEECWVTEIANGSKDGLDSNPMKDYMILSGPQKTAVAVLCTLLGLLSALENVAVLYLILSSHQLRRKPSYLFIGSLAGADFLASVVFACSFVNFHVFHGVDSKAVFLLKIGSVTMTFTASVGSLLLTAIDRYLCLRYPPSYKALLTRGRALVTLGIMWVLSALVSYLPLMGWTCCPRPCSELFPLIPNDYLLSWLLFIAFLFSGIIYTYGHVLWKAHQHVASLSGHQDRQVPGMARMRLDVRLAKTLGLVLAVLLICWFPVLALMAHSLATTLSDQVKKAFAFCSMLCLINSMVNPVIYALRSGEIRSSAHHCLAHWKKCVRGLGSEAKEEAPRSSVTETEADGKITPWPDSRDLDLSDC
Procedure: HEK293 cells stably expressing hCB2 receptors were used for the studies. The cAMP assay was carried out using PerkinElmer’s Lance ultra cAMP kit following the protocol of the manufacturer. Briefly, the assays were carried out in 384-well plates using 1000–1500 cells/well. The cells were harvested with non-enzymatic cell dissociation reagent Versene, washed once with HBSS and resuspended in the stimulation buffer. The various concentrations of the test compound (5 μL) in forskolin (2 μM final concentration) containing stimulation buffer were added to the plate followed by the cell suspension (5 μL). Cells were stimulated for 30 min at room temperature. Eu-cAMP tracer working solution (5 μL) and Ulight-anti-cAMP working solution (5 μL) were then added to the plate and incubated at room temperature for 60 min. The data were collected on a Perkin-Elmer Envision instrument. The EC50 values were determined by non-linear regression analysis using GraphPad Prism software (GraphPad Software, Inc., San Diego, CA, USA).

mouse CB2 receptor = biological target: T2, mouse CB2 receptor (Mus musculus, UniProt P47936); test: Radioligand competition binding, [3H]CP-55,940, membranes from HEK293 cells expressing mouse CB2; details: for selectivity for mCB2 over rCB1: from Ki values; for rCB1/mCB2: ratio of Ki values, rCB1 over mCB2
T2 construct: expressed in transfected cells; host or cells: HEK293
T2 sequence (P47936 whole entry): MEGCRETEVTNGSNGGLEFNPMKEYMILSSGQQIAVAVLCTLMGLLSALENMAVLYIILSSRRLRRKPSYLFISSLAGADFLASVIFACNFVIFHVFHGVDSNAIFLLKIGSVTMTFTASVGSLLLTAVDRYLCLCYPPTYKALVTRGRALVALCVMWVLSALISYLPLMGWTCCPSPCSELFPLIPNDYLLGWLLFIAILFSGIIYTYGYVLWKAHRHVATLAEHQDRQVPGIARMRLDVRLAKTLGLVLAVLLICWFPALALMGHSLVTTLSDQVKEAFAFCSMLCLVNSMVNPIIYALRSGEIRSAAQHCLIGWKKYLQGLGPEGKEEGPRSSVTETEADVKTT
Procedure: (§1) Inhibition constant values (Ki) from the respective competition binding curves are listed in Table 1 in which our first generation cannabilactone analog AM1714 is included for comparison. The current data of AM1714 for mCB2 are slightly different when compared to those we published earlier. This is because the compound was first assayed in a different mCB2 receptor preparation, e.g., mouse spleen membrane.
(§2) Results from the competition assays were analyzed using nonlinear regression to determine the IC50 values for the ligand [59]; Ki values were calculated from the IC50 (Prism by GraphPad Software, Inc.). Each experiment was performed in triplicate and Ki values determined from three independent experiments and are expressed as the mean of the three values.

rat CB1 receptor = biological target: T3, rat CB1 receptor (Rattus norvegicus, UniProt P20272); test: Radioligand competition binding, [3H]CP-55,940, rat brain membranes
T3 construct: membrane preparations from rat brain; from tissue; host or cells: rat brain membranes
T3 sequence (P20272 whole entry): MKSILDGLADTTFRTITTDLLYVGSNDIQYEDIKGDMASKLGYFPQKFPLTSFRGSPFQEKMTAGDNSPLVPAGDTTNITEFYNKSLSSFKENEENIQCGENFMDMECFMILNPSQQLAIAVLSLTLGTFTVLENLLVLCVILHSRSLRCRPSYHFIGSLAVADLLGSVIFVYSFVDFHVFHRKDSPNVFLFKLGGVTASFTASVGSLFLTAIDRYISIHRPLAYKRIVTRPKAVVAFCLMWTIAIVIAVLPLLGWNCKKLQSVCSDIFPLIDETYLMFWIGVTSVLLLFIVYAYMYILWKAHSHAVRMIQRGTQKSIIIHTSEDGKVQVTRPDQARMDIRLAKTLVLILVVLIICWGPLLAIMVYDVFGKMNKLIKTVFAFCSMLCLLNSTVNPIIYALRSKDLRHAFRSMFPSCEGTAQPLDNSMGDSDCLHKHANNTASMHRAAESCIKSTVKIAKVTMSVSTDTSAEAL
Procedure: as §1, §2

hCB2 receptor [2] = biological target: T1, hCB2 receptor; test: Radioligand competition binding, [3H]CP-55,940, membranes from HEK293 cells expressing human CB2; set-up: expressed in transfected cells; host or cells: HEK293; details: for greater affinity for mCB2 than for hCB2: from Ki values; for hCB2/mCB2 / rCB1/hCB2: ratio of Ki values; for hCB2/mCB2: hCB2 over mCB2; for rCB1/hCB2: rCB1 over hCB2; for Ki: read-out: Ki hCB2
Procedure: Indeed, in our original work on the cannabilactone class of compounds, we have identified species-specific variation in CB2 affinity. For this reason, the key compounds were also assayed using membranes from HEK293 cells expressing human CB2 (hCB2).
as §2

Row | SMILES | rCB1/mCB2 (mouse CB2 receptor) | Ki (mouse CB2 receptor) | melting point | Ki (rat CB1 receptor; read-out: Ki rCB1) | further results
1 | CCCCCCC(C)(C)c1cc(O)c2c(c1)oc(=O)c1ccc(OC)cc12 [Compound 1a] |  |  |  |  | EC50 (hCB2 receptor [1]): 10.5 ± 2.5 nM; classification at hCB2 (hCB2 receptor [1]): agonist; E(max) (hCB2 receptor [1]): 73%
2 | CCCCCCC(C)(C)c1cc(O)c2c(c1)oc(=O)c1ccc(O)cc12 [Compound 1b, reference compound] | 21.3 |  |  |  | selectivity for mCB2 over rCB1 (mouse CB2 receptor): 21- to 32 fold; Ki (mouse CB2 receptor; read-out: Ki mCB2): 4.7 ± 1.8 nM; EC50 (hCB2 receptor [1]): 36.9 ± 6.8 nM; classification at hCB2 (hCB2 receptor [1]): agonist; E(max) (hCB2 receptor [1]): 77%; Ki (rat CB1 receptor): 100 ± 24 nM; greater affinity for mCB2 than for hCB2 (hCB2 receptor [2]): 18 fold; hCB2/mCB2 (hCB2 receptor [2]): 17.7; rCB1/hCB2 (hCB2 receptor [2]): 1.2; Ki (hCB2 receptor [2]): 83.6 ± 23.2 nM
3 | O=c1oc2cc(C3(CCCCBr)CCCC3)cc(O)c2c2cc(O)ccc12 [Compound 3a, 3-[1-(4-Bromobutyl)cyclopentyl]-1,9-dihydroxy-6H-dibenzo[b,d]pyran-6-one] | 18.8 | 20.8 ± 5.9 nM | 96 to 98 °C | 390 ± 132 nM | 
4 | O=c1oc2cc(C3(CCCCCBr)CCCC3)cc(O)c2c2cc(O)ccc12 [Compound 3b, 3-[1-(5-Bromopentyl)cyclopentyl]-1,9-dihydroxy-6H-dibenzo[b,d]pyran-6-one] |  | 16.3 ± 5.2 nM |  | 370 ± 130 nM | 
5 | O=c1oc2cc(C3(CCCBr)CCCC3)cc(O)c2c2cc(O)ccc12 [Compound 3c, 3-[1-(3-Bromopropyl)cyclopentyl]-1,9-dihydroxy-6H-dibenzo[b,d]pyran-6-one] |  | 24.3 ± 3.9 nM |  | 405 ± 122 nM | 
6 | CCCCCCC1(c2cc(O)c3c(c2)oc(=O)c2ccc(O)cc23)CCCC1 [Compound 3d, 3-(1-Hexyl-cyclopentyl]-1,9-dihydroxy-6H-dibenzo[b,d]pyran-6-one] | 31.7 |  | 153 to 155 °C |  | selectivity for mCB2 over rCB1 (mouse CB2 receptor): 21- to 32 fold; Ki (mouse CB2 receptor; read-out: Ki mCB2): 8.4 ± 2.5 nM; Ki (rat CB1 receptor): 266 ± 58 nM; greater affinity for mCB2 than for hCB2 (hCB2 receptor [2]): 3 fold; hCB2/mCB2 (hCB2 receptor [2]): 3.3; rCB1/hCB2 (hCB2 receptor [2]): 9.5; Ki (hCB2 receptor [2]): 28 ± 9.7 nM
7 | N#CCCCCC1(c2cc(O)c3c(c2)oc(=O)c2ccc(O)cc23)CCCC1 [Compound 3e, 3-[1-(4-Cyanobutyl)cyclopentyl]-1,9-dihydroxy-6H-dibenzo[b,d]pyran-6-one] | 25.7 | 11.8 ± 4.1 nM | 138 to 140 °C | 304 ± 73 nM | 
8 | N#CCCCCCC1(c2cc(O)c3c(c2)oc(=O)c2ccc(O)cc23)CCCC1 [Compound 3f, 3-[1-(5-Cyanopentyl)cyclopentyl]-1,9-dihydroxy-6H-dibenzo[b,d]pyran-6-one] |  |  |  |  | Ki (mouse CB2 receptor; read-out: Ki mCB2): 4.9 ± 1.2 nM; EC50 (hCB2 receptor [1]): 3.7 ± 1.5 nM; classification at hCB2 (hCB2 receptor [1]): agonist; classification at hCB2 (hCB2 receptor [1]; listed as AM4346): potent CB2 agonist; E(max) (hCB2 receptor [1]): 89%; Ki (rat CB1 receptor): 640 ± 152 nM; greater affinity for mCB2 than for hCB2 (hCB2 receptor [2]): 7 fold; Ki (hCB2 receptor [2]): 33.8 ± 10.4 nM
9 | N#CCCCC1(c2cc(O)c3c(c2)oc(=O)c2ccc(O)cc23)CCCC1 [Compound 3g, 3-[1-(3-Cyanopropyl)cyclopentyl]-1,9-dihydroxy-6H-dibenzo[b,d]pyran-6-one] | 16.2 | 17.9 ± 5.8 nM | 118 to 120 °C | 290 ± 64 nM | 
10 | CC(C)N(C(=O)c1ccc(O)cc1-c1c(O)cc(C2(CCCCBr)CCCC2)cc1O)C(C)C [Compound 23a, 4′-[1-(4-Bromobutyl)cyclopentyl]-2′,5,6′-trihydroxy-N,N-diisopropyl-[1,1′-biphenyl]-2-carboxamide] | 31.3 | 22.4 ± 4.5 nM | 183 to 185 °C | 702 ± 220 nM | 
11 | CC(C)N(C(=O)c1ccc(O)cc1-c1c(O)cc(C2(CCCCCBr)CCCC2)cc1O)C(C)C [Compound 23b, 4′-[1-(5-Bromopentyl)cyclopentyl]-2′,5,6′-trihydroxy-N,N-diisopropyl-[1,1′-biphenyl]-2-carboxamide] | 42.8 | 17.4 ± 4.8 nM | 190 to 192 °C | 745 ± 215 nM | 
12 | CC(C)N(C(=O)c1ccc(O)cc1-c1c(O)cc(C2(CCCBr)CCCC2)cc1O)C(C)C [Compound 23c, 4′-[1-(3-Bromopropyl)cyclopentyl]-2′,5,6′-trihydroxy-N,N-diisopropyl-[1,1′-biphenyl]-2-carboxamide] | 21.8 | 10.5 ± 3.5 nM | 178 to 180 °C | 229 ± 70 nM | 
13 | CCCCCCC1(c2cc(O)c(-c3cc(O)ccc3C(=O)N(C(C)C)C(C)C)c(O)c2)CCCC1 [Compound 23d, 4′-(1-Hexyl-cyclopentyl)-2′,5,6′-trihydroxy-N,N-diisopropyl-[1,1′-biphenyl]-2-carboxamide] | 59.8 | 5.7 ± 1.5 nM | 185 to 187 °C | 341 ± 100 nM | selectivity for mCB2 over rCB1 (mouse CB2 receptor): 60 fold; response in hCB2 cAMP assay (hCB2 receptor [1]; concentrations up to 2 μM): failed to show any responses
